25 compounds from ChEMBL document CHEMBL3576802 (J Med Chem, 2015) can be followed below.

Molecules are shown by their SMILES. Where a SMILES comes first, the peptide text is derived from it. Bridges are numbered along the chain shown (N, C = ends). [ ]: non-standard residue; d: D form. Bip = N[C@@H](Cc1ccc(-c2ccccc2)cc1)C(=O)O; 1Nal = N[C@@H](Cc1cccc2ccccc12)C(=O)O

What all share (assay type): cell-based
Assay [1] concerns the target Melanocortin receptor 4 (Mus musculus, UniProt P56450). Briefly: Displacement of MTII from mouse MC4R expressed in HEK293 cells. The settings on record: for Kb: read-out: pA2 (converted).
Assay [2] has as its target Melanocyte-stimulating hormone receptor (Mus musculus, UniProt Q01727). Briefly: Agonist activity at mouse MC1R expressed in HEK293 cells by cAMP functional bioassay.
In assay [3] the target is Melanocortin receptor 3 (Mus musculus, UniProt P33033). Briefly: Displacement of MTII from mouse MC3R expressed in HEK293 cells. The following applies: for Kb: read-out: pA2 (converted).
Melanocortin receptor 3, sequence (P33033 whole entry): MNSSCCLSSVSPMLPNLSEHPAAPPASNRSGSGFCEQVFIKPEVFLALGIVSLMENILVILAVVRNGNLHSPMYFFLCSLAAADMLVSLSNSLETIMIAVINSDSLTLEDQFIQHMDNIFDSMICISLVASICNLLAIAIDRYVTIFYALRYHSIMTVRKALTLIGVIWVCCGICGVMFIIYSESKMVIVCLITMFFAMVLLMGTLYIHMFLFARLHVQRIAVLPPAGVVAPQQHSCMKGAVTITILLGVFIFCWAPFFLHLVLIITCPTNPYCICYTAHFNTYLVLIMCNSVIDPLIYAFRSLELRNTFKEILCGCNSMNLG
Assay [4] concerns the target Melanocyte-stimulating hormone receptor (Mus musculus) (UniProt Q01727). Briefly: Agonist activity at mouse MC1R expressed in HEK293 cells at 100 uM by cAMP functional bioassay.

Melanocortin receptor 4, sequence (P56450 whole entry): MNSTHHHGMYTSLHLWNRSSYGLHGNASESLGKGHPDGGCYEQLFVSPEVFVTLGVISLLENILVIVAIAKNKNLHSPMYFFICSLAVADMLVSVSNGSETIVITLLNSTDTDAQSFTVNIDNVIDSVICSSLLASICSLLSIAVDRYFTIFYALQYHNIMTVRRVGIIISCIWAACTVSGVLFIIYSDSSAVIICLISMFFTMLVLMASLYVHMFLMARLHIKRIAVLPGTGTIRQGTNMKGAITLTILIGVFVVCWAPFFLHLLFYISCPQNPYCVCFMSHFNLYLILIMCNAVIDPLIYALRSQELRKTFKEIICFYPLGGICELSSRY
Melanocyte-stimulating hormone receptor, sequence (Q01727 whole entry): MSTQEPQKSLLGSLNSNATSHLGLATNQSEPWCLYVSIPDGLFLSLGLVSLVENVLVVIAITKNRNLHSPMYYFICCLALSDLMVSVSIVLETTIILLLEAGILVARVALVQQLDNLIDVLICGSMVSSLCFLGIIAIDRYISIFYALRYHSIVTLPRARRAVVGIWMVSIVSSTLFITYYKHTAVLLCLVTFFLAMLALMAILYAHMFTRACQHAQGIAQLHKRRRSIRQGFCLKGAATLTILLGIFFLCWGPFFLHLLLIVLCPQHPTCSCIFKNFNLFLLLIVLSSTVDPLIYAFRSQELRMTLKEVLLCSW
Melanocyte-stimulating hormone receptor (Mus musculus), sequence (Q01727 whole entry, looked up): as the sequence (Q01727 whole entry) above

A word on the Ki: it is a dissociation constant, usually derived from enzyme kinetics or from competition with a known ligand. A high value points to a looser hold on the target. As a reminder, the pA2 is the negative logarithm of the molar antagonist concentration that doubles the agonist concentration needed for the same response. Lower therefore signals a weaker antagonist. For orientation: EC50 means the midpoint of the concentration-response curve. In assay [1] (hek293), `C[C@@H]1NC(=O)[C@H](CC(N)=O)NC(=O)[C@H](Cc2ccccc2)NC(=O)[C@H](Cc2ccc3ccccc3c2)NC(=O)[C@H](CCCNC(=N)N)NC(=O)[C@@H]2CCCN2C(=O)[C@H]2CCCN2C(=O)[C@H](Cc2ccccc2)NC1=O` showed a Ki of 100 nM and a pA2 of 7. In assay [2] (hek293), this compound yielded a concentration for a half-maximal effect (EC50) of 8800 nM.

Regarding `C[C@@H]1NC(=O)[C@H](CC(N)=O)NC(=O)C(Cc2cccc3ccccc23)NC(=O)[C@H](Cc2ccccc2)NC(=O)[C@H](CCCNC(=N)N)NC(=O)[C@@H]2CCCN2C(=O)[C@H]2CCCN2C(=O)[C@H](Cc2ccccc2)NC1=O` (stereo not given in full), in assay [3], the affinity, expressed as Ki, was 2500 nM and the Kb is 2510 nM.

For `C[C@H](NC(=O)[C@H](Cc1ccc(O)cc1)NC(=O)[C@@H]1CSSC[C@H](NC(=O)[C@H](Cc2ccc(O)cc2)NC(=O)[C@H](C)NC(=O)[C@@H](N)[C@@H](C)O)C(=O)N[C@@H](CCCNC(=N)N)C(=O)N[C@@H](Cc2ccccc2)C(=O)N[C@@H](Cc2ccccc2)C(=O)N[C@@H](CC(N)=O)C(=O)N[C@@H](C)C(=O)N[C@@H](Cc2ccccc2)C(=O)N1)C(=O)N[C@@H](CCCNC(=N)N)C(N)=O` (H-TAYCRFFNAFCYAR-NH2; disulfide 4-11), the Kb in assay [3] was 794 nM.

Regarding `C[C@@H]1NC(=O)[C@H](CC(N)=O)NC(=O)[C@H](Cc2ccccc2)NC(=O)[C@H](Cc2ccc(-c3ccccc3)cc2)NC(=O)[C@H](CCCNC(=N)N)NC(=O)[C@@H]2CCCN2C(=O)[C@H]2CCCN2C(=O)[C@H](Cc2ccccc2)NC1=O` (cyclo(R[Bip]FNAF[dP]P)), in assay [1], the affinity corresponds to a Ki of 160 nM and the Kb was 158 nM. Besides, in assay [3], the Ki came out at 630 nM and the Kb was 631 nM. In addition, a half-maximal effect in assay [2] (EC50) was put at 800 nM.

As to `C[C@@H]1NC(=O)[C@H](Cc2ccccc2)NC(=O)[C@H](C)NC(=O)[C@H](CC(N)=O)NC(=O)[C@H](Cc2ccccc2)NC(=O)[C@H](Cc2ccccc2)NC(=O)[C@H](CCCNC(=N)N)NC(=O)[C@H](C)NC(=O)[C@H](Cc2ccc(O)cc2)NC(=O)[C@@H]2CCCN2C(=O)[C@H]2CCCN2C(=O)[C@H](Cc2ccc(O)cc2)NC1=O`, it took 17600 nM to reach a half-maximal effect in assay [2] (EC50).

In the case of `C[C@@H]1NC(=O)C(CCN)NC(=O)[C@H](Cc2ccccc2)NC(=O)[C@H](Cc2ccccc2)NC(=O)[C@H](CCCNC(=N)N)NC(=O)[C@@H]2CCCN2C(=O)[C@H]2CCCN2C(=O)[C@H](Cc2ccccc2)NC1=O` (stereo not given in full), the Activity in assay [4] came to 50%. In assay [3], the affinity corresponds to a Ki of 100 nM and the Kb is 100 nM.

As to `CC(=O)N[C@H]1CSSC[C@@H](C(N)=O)NC(=O)[C@H](Cc2ccccc2)NC(=O)[C@H](C)NC(=O)[C@H](CC(N)=O)NC(=O)[C@H](Cc2ccccc2)NC(=O)[C@H](Cc2ccccc2)NC(=O)[C@H](CCCNC(=N)N)NC1=O`, the IC50 result in assay [1] (hek293) was “Not Active”.

Compound `C[C@@H]1NC(=O)[C@H](CC(N)=O)NC(=O)[C@H](Cc2ccccc2)NC(=O)[C@H](c2ccccc2)NC(=O)[C@H](CCCNC(=N)N)NC(=O)[C@@H]2CCCN2C(=O)[C@H]2CCCN2C(=O)[C@H](Cc2ccccc2)NC1=O` registered an EC50 in assay [2] (hek293) of 13600 nM.

On to `C[C@@H]1NC(=O)[C@H](CC(N)=O)NC(=O)[C@H](Cc2cccc3ccccc23)NC(=O)[C@H](Cc2ccccc2)NC(=O)[C@H](CCCNC(=N)N)NC(=O)[C@@H]2CCCN2C(=O)[C@H]2CCCN2C(=O)[C@H](Cc2ccccc2)NC1=O`, for which, in assay [1] (hek293), the Ki amounted to 16 nM and the pA2 was found to be 7.8. In assay [2] (hek293), this compound yielded an EC50 of 12700 nM.

Compound `C[C@@H]1NC(=O)[C@H](CC(N)=O)NC(=O)[C@H](CCc2ccccc2)NC(=O)[C@H](Cc2ccccc2)NC(=O)[C@H](CCCNC(=N)N)NC(=O)[C@@H]2CCCN2C(=O)[C@H]2CCCN2C(=O)[C@H](Cc2ccccc2)NC1=O` showed a half-maximal effective concentration (EC50) in assay [2] (hek293) of 20300 nM.

Consider `C[C@@H]1NC(=O)[C@H](CC(N)=O)NC(=O)[C@H](Cc2ccccc2)NC(=O)[C@H](Cc2ccccc2)NC(=O)[C@H](CCCNC(=N)N)NC(=O)[C@@H]2CCCN2C(=O)[C@H]2CCCN2C(=O)[C@H](Cc2ccccc2)NC1=O`, for which, in assay [2], the response was half-maximal at 4500 nM (EC50).

Compound `C[C@@H]1NC(=O)[C@H](CC(N)=O)NC(=O)[C@@H]2Cc3ccccc3CN2C(=O)[C@H](Cc2ccccc2)NC(=O)[C@H](CCCNC(=N)N)NC(=O)[C@@H]2CCCN2C(=O)[C@H]2CCCN2C(=O)[C@H](Cc2ccccc2)NC1=O` had an EC50 in assay [2] (hek293) of 3900 nM.

`C[C@@H]1NC(=O)CNC(=O)[C@H](Cc2ccccc2)NC(=O)[C@H](Cc2ccccc2)NC(=O)[C@H](CCCNC(=N)N)NC(=O)[C@@H]2CCCN2C(=O)[C@H]2CCCN2C(=O)[C@H](Cc2ccccc2)NC1=O`: in assay [1], the Ki was 4 nM and the Kb is 3.98 nM. This compound also registered an Activity in assay [4] of 50%. Moreover, in assay [3], the Ki came out at 25 nM and the Kb was 25.1 nM.

As for `C[C@@H]1NC(=O)[C@H](CC(N)=O)NC(=O)[C@H](Cc2ccccc2)NC(=O)[C@H](Cc2ccccc2)NC(=O)[C@H](CCCNC(=N)N)NC(=O)[C@H]([C@@H](C)O)NC(=O)[C@H](Cc2ccc(O)cc2)NC(=O)[C@@H]2CCCN2C(=O)[C@H]2CCCN2C(=O)[C@H](Cc2ccc(O)cc2)NC(=O)[C@H]([C@@H](C)O)NC(=O)[C@H](Cc2ccccc2)NC1=O` (cyclo(YTRFFNAFTY[dP]P)), the Kb in assay [1] is 158 nM; in assay [3] it was 1260 nM. In assay [2], this compound had a half-maximal effective concentration (EC50) of 11600 nM.

Regarding `C[C@@H]1NC(=O)[C@H](CC(N)=O)NC(=O)[C@H](c2ccccc2)NC(=O)[C@H](Cc2ccccc2)NC(=O)[C@H](CCCNC(=N)N)NC(=O)[C@@H]2CCCN2C(=O)[C@H]2CCCN2C(=O)[C@H](Cc2ccccc2)NC1=O`, in assay [1] (hek293), the Ki was 1300 nM and the pA2 amounted to 5.9. The compound further displayed a concentration giving a half-maximal response (EC50) in assay [2] (hek293) of 21000 nM.

In assay [1] (hek293), `C[C@@H]1NC(=O)[C@H](CC(N)=O)NC(=O)[C@H](Cc2ccc3ccccc3c2)NC(=O)[C@H](Cc2ccccc2)NC(=O)[C@H](CCCNC(=N)N)NC(=O)[C@@H]2CCCN2C(=O)[C@H]2CCCN2C(=O)[C@H](Cc2ccccc2)NC1=O` displayed a Ki of 63 nM and a pA2 of 7.2. In addition, a half-maximal effect in assay [2] (hek293) (EC50) was put at 19600 nM.

Regarding `C[C@@H]1NC(=O)[C@H](CC(N)=O)NC(=O)[C@H](Cc2ccccc2)NC(=O)C(Cc2ccc3ccccc3c2)NC(=O)[C@H](CCCNC(=N)N)NC(=O)[C@@H]2CCCN2C(=O)[C@H]2CCCN2C(=O)[C@H](Cc2ccccc2)NC1=O` (stereo not given in full), in assay [3], the affinity corresponds to a Ki of 1000 nM and the Kb is 1000 nM.

For `C[C@@H]1NC(=O)[C@H](CC(N)=O)NC(=O)[C@H](Cc2ccccc2)NC(=O)[C@H](Cc2cccc3ccccc23)NC(=O)[C@H](CCCNC(=N)N)NC(=O)[C@@H]2CCCN2C(=O)[C@H]2CCCN2C(=O)[C@H](Cc2ccccc2)NC1=O` (cyclo(R[1Nal]FNAF[dP]P)), in assay [1] (hek293), the Ki was determined as 16 nM and the pA2 was determined as 7.8. Also, the EC50 in assay [2] (hek293) was found to be 2500 nM.

Take `C[C@@H]1NC(=O)[C@H](CC(N)=O)NC(=O)[C@H](Cc2ccc(-c3ccccc3)cc2)NC(=O)[C@H](Cc2ccccc2)NC(=O)[C@H](CCCNC(=N)N)NC(=O)[C@@H]2CCCN2C(=O)[C@H]2CCCN2C(=O)[C@H](Cc2ccccc2)NC1=O`: in assay [1], the Ki came out at 160 nM and the Kb is 158 nM. For the same compound, the EC50 in assay [2] came out at 500 nM.

For `C[C@@H]1NC(=O)C(CN)NC(=O)[C@H](Cc2ccccc2)NC(=O)[C@H](Cc2ccccc2)NC(=O)[C@H](CCCNC(=N)N)NC(=O)[C@@H]2CCCN2C(=O)[C@H]2CCCN2C(=O)[C@H](Cc2ccccc2)NC1=O` (stereo not given in full), in assay [4], the Activity is 75%. Moreover, in assay [3], the Ki was 130 nM and the Kb was 126 nM.

Turning to `C[C@@H]1NC(=O)[C@H](CCCCN)NC(=O)[C@H](Cc2ccccc2)NC(=O)[C@H](Cc2ccccc2)NC(=O)[C@H](CCCNC(=N)N)NC(=O)[C@@H]2CCCN2C(=O)[C@H]2CCCN2C(=O)[C@H](Cc2ccccc2)NC1=O`, in assay [1], the affinity corresponds to a Ki of 5 nM and the Kb was 5.01 nM. Besides, in assay [3], the Ki amounted to 100 nM and the Kb was 100 nM.

Regarding `C[C@@H]1NC(=O)C(CCCN)NC(=O)[C@H](Cc2ccccc2)NC(=O)[C@H](Cc2ccccc2)NC(=O)[C@H](CCCNC(=N)N)NC(=O)[C@@H]2CCCN2C(=O)[C@H]2CCCN2C(=O)[C@H](Cc2ccccc2)NC1=O` (stereo not given in full), the Activity in assay [4] is 30%. In addition, in assay [3], the Ki was found to be 160 nM and the Kb was 158 nM.

For the compound `C[C@@H]1NC(=O)[C@H](CC(N)=O)NC(=O)[C@H](Cc2ccccc2)NC(=O)[C@H](CCc2ccccc2)NC(=O)[C@H](CCCNC(=N)N)NC(=O)[C@@H]2CCCN2C(=O)[C@H]2CCCN2C(=O)[C@H](Cc2ccccc2)NC1=O`, in assay [1] (hek293), the Ki amounted to 100 nM and the pA2 is listed as 7. The midpoint of the response in assay [2] (hek293), the EC50, lay at 1500 nM.

As to `CC(=O)N[C@H](C(=O)N[C@H]1CSSC[C@@H](C(=O)N[C@@H](CCCNC(=N)N)C(N)=O)NC(=O)[C@H](Cc2ccc(O)cc2)NC(=O)[C@@H]2CSSC[C@H](NC(=O)[C@H](Cc3ccc(O)cc3)NC1=O)C(=O)N[C@@H](CCCNC(=N)N)C(=O)N[C@@H](Cc1ccccc1)C(=O)N[C@@H](Cc1ccccc1)C(=O)N[C@@H](CC(N)=O)C(=O)N[C@@H](C)C(=O)N[C@@H](Cc1ccccc1)C(=O)N2)[C@@H](C)O`, in assay [1], the Kb is 63.1 nM.

As for `CC(=O)N[C@H](C(=O)N[C@H]1CSSC[C@@H](C(=O)N[C@@H](CCCNC(=N)N)C(N)=O)NC(=O)[C@H](Cc2ccc(O)cc2)NC(=O)[C@H]2CSSC[C@H](NC(=O)[C@H](Cc3ccc(O)cc3)NC1=O)C(=O)N[C@@H](CCCNC(=N)N)C(=O)N[C@@H](Cc1ccccc1)C(=O)N[C@@H](Cc1ccccc1)C(=O)N[C@@H](CC(N)=O)C(=O)N[C@@H](C)C(=O)N[C@@H](Cc1ccccc1)C(=O)N2)[C@@H](C)O`, in assay [3], the Kb is 631 nM.
